Activity data for one molecule are collected here from ChEMBL document CHEMBL1811903, “Protective role of 14-deoxy-11,12-didehydroandrographolide, a noncytotoxic analogue of andrographolide, in allergic airway inflammation” (J Nat Prod, 2011).

Format in all cases: cell-based
The test system of data set [1] is A549. The data set can be described thus: Cytotoxicity against human A549 cells assessed as reduction in cell viability after 48 hrs by MTS assay. The following applies: a549, 48 h. For orientation: Tetrazolium assays rely on reduction of a dye to a coloured formazan, in cell work by metabolically active cells.
Data set [2] concerns RBL-2H3. The experiment in a line: Cytotoxicity against rat RBL2H3 cells assessed as reduction in cell viability after 24 hrs by MTS assay. The following applies: rbl-2h3, 24 h.
Data set [3] has as its system A549. The experiment in a line: Cytotoxicity against human A549 cells assessed as reduction in cell viability at 3 to 120 uM by MTS assay. The following applies: a549, 120 µM, TDE = time-dependent effect.
Data set [4] in a line: Cytotoxicity against human BEAS2B cells assessed as reduction in cell viability at 3 to 120 uM by MTS assay. Conditions: beas-2b, TDE = time-dependent effect; call rule not given here.
Data set [5] deals with RBL-2H3. The data set can be described thus: Cytotoxicity against rat RBL2H3 cells assessed as reduction in cell viability at 3 to 120 uM by MTS assay. Conditions: rbl-2h3, 120 µM, TDE = time-dependent effect.
For data set [6], the system named is RBL-2H3. The data set can be described thus: Cytotoxicity against rat RBL2H3 cells assessed as reduction in cell viability after 48 hrs by MTS assay. Conditions: rbl-2h3, 48 h.
Data set [7] can be described thus: Cytotoxicity against human BEAS2B cells assessed as reduction in cell viability after 24 hrs by MTS assay. The following applies: beas-2b.
In data set [8] the test system is A549. The data set can be described thus: Cytotoxicity against human A549 cells assessed as reduction in cell viability after 24 hrs by MTS assay. The following applies: a549, 24 h.
Data set [9] can be described thus: Cytotoxicity against human BEAS2B cells assessed as reduction in cell viability after 48 hrs by MTS assay. Conditions: beas-2b.

As for `C=C1CC[C@@H]2[C@](C)(CO)[C@H](O)CC[C@@]2(C)[C@@H]1C/C=C1/C(=O)OC[C@H]1O` [ANDROGRAPHOLIDE], the Activity entry is “Dose-dependent effect” in the data set with A549 [1]; “Dose-dependent effect” with RBL-2H3 [2]; “tde” with A549 [3]; “tde” in [4]; “tde” in the data set with RBL-2H3 [5]; “Dose-dependent effect” in the data set on RBL-2H3 [6]. Also, the Activity entry (in [7]; with A549 [8]; in data set [9]) was “Dose-dependent effect” in each case.
